In the supplement of paper PMC10307832:

Assays:
Assay in all cases: relative viability (nuclei count vs DMSO), 5 days (fraction); higher = more cells survive
Pictilisib + Bortezomib = compound: CS(=O)(=O)N1CCN(Cc2cc3nc(-c4cccc5[nH]ncc45)nc(N4CCOCC4)c3s2)CC1 [Pictilisib] + CC(C)C[C@H](NC(=O)[C@H](Cc1ccccc1)NC(=O)c1cnccn1)B(O)O [Bortezomib] (partner 0.002 µM)
Summary of the method: (§1)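 Relative viability was taken as the ratio of nuclei in treated wells to nuclei in vehicle wells. Lung cancer cell lines in 1536-well plates received compounds by pin tool one day after seeding, either one drug alone or a fixed anchor-drug dose plus five library-drug doses (not always all listed) in √10 steps. Nuclei were counted on 4× images after 5 days of treatment, and values are medians of duplicate plates.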

Pictilisib + Navitoclax = compound: CS(=O)(=O)N1CCN(Cc2cc3nc(-c4cccc5[nH]ncc45)nc(N4CCOCC4)c3s2)CC1 [Pictilisib] + CC1(C)CCC(c2ccc(Cl)cc2)=C(CN2CCN(c3ccc(C(=O)NS(=O)(=O)c4ccc(N[C@H](CCN5CCOCC5)CSc5ccccc5)c(S(=O)(=O)C(F)(F)F)c4)cc3)CC2)C1 [Navitoclax] (partner 0.5 µM)
Summary of the method: as §1

Pictilisib + Alpelisib = compound: CS(=O)(=O)N1CCN(Cc2cc3nc(-c4cccc5[nH]ncc45)nc(N4CCOCC4)c3s2)CC1 [Pictilisib] + Cc1nc(NC(=O)N2CCC[C@H]2C(N)=O)sc1-c1ccnc(C(C)(C)C(F)(F)F)c1 [Alpelisib] (partner 2 µM)
Summary of the method: as §1

MK-2206 + Navitoclax = compound: NC1(c2ccc(-c3nc4ccn5c(=O)[nH]nc5c4cc3-c3ccccc3)cc2)CCC1 [MK-2206] + CC1(C)CCC(c2ccc(Cl)cc2)=C(CN2CCN(c3ccc(C(=O)NS(=O)(=O)c4ccc(N[C@H](CCN5CCOCC5)CSc5ccccc5)c(S(=O)(=O)C(F)(F)F)c4)cc3)CC2)C1 [Navitoclax] (partner 0.5 µM)
Summary of the method: as §1

MK-2206 + AZD7762 = compound: NC1(c2ccc(-c3nc4ccn5c(=O)[nH]nc5c4cc3-c3ccccc3)cc2)CCC1 [MK-2206] + NC(=O)Nc1cc(-c2cccc(F)c2)sc1C(=O)N[C@H]1CCCNC1 [AZD7762] (partner 0.2 µM)
Summary of the method: as §1

| Cell Line | relative viability (Pictilisib + Bortezomib; first compound 0.02 µM) | relative viability (Pictilisib + Bortezomib; first compound 0.06325 µM) | relative viability (Pictilisib + Bortezomib; first compound 0.6325 µM) | relative viability (Pictilisib + Bortezomib; first compound 2 µM) | relative viability (Pictilisib + Navitoclax; first compound 0.02 µM) | relative viability (Pictilisib + Navitoclax; first compound 0.06325 µM) | relative viability (Pictilisib + Navitoclax; first compound 0.6325 µM) | relative viability (Pictilisib + Navitoclax; first compound 2 µM) | relative viability (Pictilisib + Alpelisib; first compound 0.02 µM) | relative viability (Pictilisib + Alpelisib; first compound 0.06325 µM) | relative viability (Pictilisib + Alpelisib; first compound 0.6325 µM) | relative viability (Pictilisib + Alpelisib; first compound 2 µM) | relative viability (MK-2206 + Navitoclax; first compound 0.01 µM) | relative viability (MK-2206 + Navitoclax; first compound 0.03162 µM) | relative viability (MK-2206 + Navitoclax; first compound 0.3162 µM) | relative viability (MK-2206 + Navitoclax; first compound 1 µM) | relative viability (MK-2206 + AZD7762; first compound 0.01 µM) | relative viability (MK-2206 + AZD7762; first compound 0.03162 µM) | relative viability (MK-2206 + AZD7762; first compound 0.3162 µM) | relative viability (MK-2206 + AZD7762; first compound 1 µM) |
| --- | --- | --- | --- | --- | --- | --- | --- | --- | --- | --- | --- | --- | --- | --- | --- | --- | --- | --- | --- | --- |
| NCI-H2087 | 0.733 | 0.772 | 0.953 | 0.503 | 1.04 | 0.945 | 0.943 | 0.674 | 1.22 | 1.06 | 1.02 | 0.954 | 1.14 | 0.905 | 0.906 | 0.912 | 0.809 | 1.34 | 1.4 | 1.33 |
| NCI-H2126 | 1.05 | 1.15 | 1.07 | 0.923 | 0.855 | 0.836 | 0.747 | 0.636 | 0.776 | 0.712 | 0.679 | 0.564 | 0.821 | 0.814 | 0.782 | 0.793 | 0.971 | 0.96 | 0.94 | 0.996 |
| NCI-H2347 | 1.05 | 1.12 | 0.938 | 0.567 | 0.865 | 0.874 | 0.75 | 0.528 | 1.1 | 1.09 | 0.912 | 0.873 | 0.752 | 0.883 | 0.684 | 0.883 | 0.778 | 0.652 | 0.649 | 0.636 |
| NCI-H2405 | 1.03 | 0.961 | 0.919 | 0.651 | 0.981 | 0.871 | 0.594 | 0.5 | 0.957 | 0.785 | 0.732 | 0.424 | 0.838 | 1.06 | 0.83 | 0.779 | 0.824 | 0.769 | 0.838 | 0.534 |
| NCI-H3122 | 0.99 | 1.05 | 1.04 | 0.601 | 0.986 | 1.04 | 0.966 | 0.475 | 0.749 | 0.723 | 0.658 | 0.469 | 1.02 | 1.03 | 1.01 | 0.958 | 0.936 | 1.04 | 0.979 | 0.91 |
| PC-3 [JPC-3] | 0.795 | 0.87 | 0.896 | 0.811 | 0.758 | 0.749 | 0.803 | 0.496 | 1 | 1.09 | 1.04 | 0.976 | 0.817 | 0.849 | 0.83 | 0.825 | 0.881 | 0.849 | 0.774 | 0.334 |
| PC-14 | 1.04 | 0.794 | 0.89 | 0.573 | 1.03 | 1.06 | 1.06 | 0.739 | 0.924 | 0.943 | 1.02 | 0.766 | 0.956 | 1.05 | 1.1 | 1.01 | 0.326 | 0.243 | 0.329 | 0.366 |
| RERF-LC-KJ | 1.13 | 1.13 | 1.09 | 0.672 | 0.93 | 0.728 | 0.91 | 0.5 | 0.784 | 0.712 | 0.697 | 0.574 | 0.836 | 1.28 | 0.708 | 0.69 | 0.915 | 1.15 | 0.84 | 1.01 |
